biological target: Human eIF4E (Homo sapiens (Human), UniProt P06730); test: Human eIF4E/4G binding assay (time-resolved fluorescence, HH-eIF4E and biotin-labeled 4G2 peptide); settings: inhibition of binding of His-tagged human eIF4E (aa 28-217) to biotin-labeled 4G2 peptide
Protocol: The protein was solubilized with 8 M urea and purified under denaturing conditions using nickel-charged HisTrap HP columns (GE Healthcare). The protein was refolded by diluting to approximately 0.25 mg/mL with 6 M urea, 20 mM Hepes pH 7.0, 500 mM NaCl, 1 mM DTT, 1 mM EDTA, and 0.5 M arginine.HCl, and then dialyzing overnight into the same buffer without the urea. The protein was further dialyzed into 20 mM Hepes pH 6.5, 50 mM NaCl, 1 mM EDTA, and 1 mM DTT, filtered, and then concentrated using Hitrap SP sepharose FF columns (GE Healthcare). The protein was dialyzed into 20 mM Hepes pH 7.0, 500 mM NaCl, 5 mM DTT, and 10% glycerol and stored at −80° C. until use. Test compounds (1.6 mM stock in DMSO) were diluted 3 fold in series in DMSO. Compound solutions were diluted 4 fold in Assay Buffer (50 mM sodium phosphate, pH 6.5, 50 mM KCl, 1 mM DTT and 0.5 mg/mL gammaglobulin). […] The samples were incubated at room temperature for 20 minutes. […] IC50 values were calculated using Condoseo software (Genedata AG).

Human eIF4E, sequence (P06730 28-217): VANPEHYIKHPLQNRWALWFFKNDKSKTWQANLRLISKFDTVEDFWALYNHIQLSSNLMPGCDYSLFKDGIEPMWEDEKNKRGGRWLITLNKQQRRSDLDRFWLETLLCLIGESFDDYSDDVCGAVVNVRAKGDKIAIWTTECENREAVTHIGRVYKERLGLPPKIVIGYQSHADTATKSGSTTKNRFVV

IC50 [µM]	SMILES
3.8	CC(=O)c1ccc(-c2ccc(-c3nc(-c4ccc(Cl)c(Cl)c4)cs3)cc2C(=O)O)cc1 [Example 120, 4′-Acetyl-4-[4-(3,4-dichloro-phenyl)-thiazol-2-yl]-biphenyl-2-carboxylic acid]
5.6	O=C(O)c1cc(-c2nc(-c3ccc(Cl)c(Cl)c3)cs2)ccc1-c1ccc(F)cc1F [Example 132, 4-[4-(3,4-Dichloro-phenyl)-thiazol-2-yl]-2′,4′-difluoro-biphenyl-2-carboxylic acid]
1.3	Cc1cc(C#N)ccc1-c1ccc(-c2nc(-c3ccc(Cl)c(Cl)c3)cs2)cc1C(=O)O [Example 105, 4′-Cyano-4-[4-(3,4-dichloro-phenyl)-thiazol-2-yl]-2′-methyl-biphenyl-2-carboxylic acid]
3	COc1ccc(Cl)c(-c2ccc(-c3nc(-c4ccc(Cl)c(Cl)c4)cs3)cc2C(=O)O)c1 [Example 93, 2′-Chloro-4-[4-(3,4-dichloro-phenyl)-thiazol-2-yl]-5′-methoxy-biphenyl-2-carboxylic acid]
4.2	Cc1cscc1-c1ccc(-c2nc(-c3ccc(Cl)c(Cl)c3)cs2)cc1C(=O)O [Example 142, 5-[4-(3,4-Dichloro-phenyl)-thiazol-2-yl]-2-(4-methyl-thiophen-3-yl)-benzoic acid]
4.8	COc1ccccc1-c1ccc(-c2nc(-c3ccc(Cl)c(Cl)c3)cs2)cc1C(=O)O [Example 92, 4-[4-(3,4-Dichloro-phenyl)-thiazol-2-yl]-2′-methoxy-biphenyl-2-carboxylic acid]
1.3	NC(=O)c1ncccc1-c1ccc(-c2nc(-c3ccc(Cl)c(Cl)c3)cs2)cc1C(=O)O [Example 77, 2-(2-Carbamoyl-pyridin-3-yl)-5-[4-(3,4-dichloro-phenyl)-thiazol-2-yl]-benzoic acid]
3.6	O=C(O)c1cc(-c2nc(-c3ccc(Cl)c(Cl)c3)cs2)ccc1-c1ccccc1F [Example 137, 4-[4-(3,4-Dichloro-phenyl)-thiazol-2-yl]-2′-fluoro-biphenyl-2-carboxylic acid]
1.5	COc1ccc(-c2ccc(-c3nc(-c4ccc(Cl)c(Cl)c4)cs3)cc2C(=O)O)c(Cl)c1 [Example 94, 2′-Chloro-4-[4-(3,4-dichloro-phenyl)-thiazol-2-yl]-4′-methoxy-biphenyl-2-carboxylic acid]
7.7	CC(=O)c1ccccc1-c1ccc(-c2nc(-c3ccc(Cl)c(Cl)c3)cs2)cc1C(=O)O [Example 117, 2′-Acetyl-4-[4-(3,4-dichloro-phenyl)-thiazol-2-yl]-biphenyl-2-carboxylic acid]
2.2	O=C(O)c1cc(-c2nc(-c3ccc(Cl)c(Cl)c3)cs2)ccc1-c1ccccc1Cl [Example 153, 2′-Chloro-4-[4-(3,4-dichloro-phenyl)-thiazol-2-yl]-biphenyl-2-carboxylic acid]
5	COc1cccc(-c2ccc(-c3nc(-c4ccc(Cl)c(Cl)c4)cs3)cc2C(=O)O)c1 [Example 91, 4-[4-(3,4-Dichloro-phenyl)-thiazol-2-yl]-3′-methoxy-biphenyl-2-carboxylic acid]
0.5	O=C(O)c1cc(-c2nc(-c3ccc(Cl)c(Cl)c3)cs2)ccc1-c1ccccc1[N+](=O)[O-] [Example 16, 4-[4-(3,4-Dichloro-phenyl)-thiazol-2-yl]-2′-nitro-biphenyl-2-carboxylic acid]

Further lines, the compound ahead of its results:

SMILES	IC50 [µM]
O=C(O)c1cc(-c2nc(-c3ccc(Cl)c(Cl)c3)cs2)ccc1-c1ccncc1 [Example 103, 5-[4-(3,4-Dichloro-phenyl)-thiazol-2-yl]-2-pyridin-4-yl-benzoic acid]	8.5
N#Cc1ccc(-c2ccc(-c3nc(-c4ccc(Cl)c(Cl)c4)cs3)cc2C(=O)O)cc1 [Example 106, 4′-Cyano-4-[4-(3,4-dichloro-phenyl)-thiazol-2-yl]-biphenyl-2-carboxylic acid]	7.6
N#Cc1cccc(-c2ccc(-c3nc(-c4ccc(Cl)c(Cl)c4)cs3)cc2C(=O)O)c1 [Example 107, 3′-Cyano-4-[4-(3,4-dichloro-phenyl)-thiazol-2-yl]-biphenyl-2-carboxylic acid]	3.2
N#Cc1ccc(Cl)c(-c2ccc(-c3nc(-c4ccc(Cl)c(Cl)c4)cs3)cc2C(=O)O)c1 [Example 108, 2′-Chloro-5′-cyano-4-[4-(3,4-dichloro-phenyl)-thiazol-2-yl]-biphenyl-2-carboxylic acid]	3.5
Cc1ccc(F)c(-c2ccc(-c3nc(-c4ccc(Cl)c(Cl)c4)cs3)cc2C(=O)O)c1Cl [Example 139, 2′-Chloro-4-[4-(3,4-dichloro-phenyl)-thiazol-2-yl]-6′-fluoro-3′-methyl-biphenyl-2-carboxylic acid]	1.6
O=C(O)c1cc(-c2nc(-c3ccc(Cl)c(Cl)c3)cs2)ccc1-c1cc(F)cc(F)c1F [Example 133, 4-[4-(3,4-Dichloro-phenyl)-thiazol-2-yl]-2′,3′,5′-trifluoro-biphenyl-2-carboxylic acid]	1.6
CN(C)CCCNC(=O)c1ccc(-c2ccc(-c3nc(-c4ccc(Cl)c(Cl)c4)cs3)cc2C(=O)O)cc1 [Example 48, 4-[4-(3,4-Dichloro-phenyl)-thiazol-2-yl]-4′-(3-dimethylamino-propylcarbamoyl)-biphenyl-2-carboxylic acid]	> 80
CCOc1ncc(-c2ccc(-c3nc(-c4ccc(Cl)c(Cl)c4)cs3)cc2C(=O)O)cn1 [Example 82, 5-[4-(3,4-Dichloro-phenyl)-thiazol-2-yl]-2-(2-ethoxy-pyrimidin-5-yl)-benzoic acid]	3.6
O=C(NCCCN1CCOCC1)c1ccc(-c2ccc(-c3nc(-c4ccc(Cl)c(Cl)c4)cs3)cc2C(=O)O)cc1 [Example 58, 4-[4-(3,4-Dichloro-phenyl)-thiazol-2-yl]-4′-(3-morpholin-4-yl-propylcarbamoyl)-biphenyl-2-carboxylic acid]	> 80
COc1ccc(CNC(=O)c2ccc(-c3ccc(-c4nc(-c5ccc(Cl)c(Cl)c5)cs4)cc3C(=O)O)cc2)cc1 [Example 64, 4-[4-(3,4-Dichloro-phenyl)-thiazol-2-yl]-4′-(4-methoxy-benzylcarbamoyl)-biphenyl-2-carboxylic acid]	2
O=C(O)c1cc(-c2nc(-c3ccc(Cl)c(Cl)c3)cs2)ccc1-c1cc(OC(F)(F)F)ccc1Cl [Example 88, 2′-Chloro-4-[4-(3,4-dichloro-phenyl)-thiazol-2-yl]-5′-trifluoromethoxy-biphenyl-2-carboxylic acid]	0.6
O=C(NCc1cccs1)c1ccc(-c2ccc(-c3nc(-c4ccc(Cl)c(Cl)c4)cs3)cc2C(=O)O)cc1 [Example 75, 4-[4-(3,4-Dichloro-phenyl)-thiazol-2-yl]-4′-[(thiophen-2-ylmethyl)-carbamoyl]-biphenyl-2-carboxylic acid]	3.1
O=C(O)c1cc(-c2nc(-c3ccc(OC(F)(F)F)cc3)cs2)ccc1-c1ccccc1[N+](=O)[O-] [Example 2, 2′-Nitro-4-[4-(4-trifluoromethoxy-phenyl)-thiazol-2-yl]-biphenyl-2-carboxylic acid]	2.6
O=C(O)c1cc(-c2nc(-c3ccc(Cl)c(Cl)c3)cs2)ccc1-c1ccc(C(F)(F)F)cc1Cl [Example 127, 2′-Chloro-4-[4-(3,4-dichloro-phenyl)-thiazol-2-yl]-4′-trifluoromethyl-biphenyl-2-carboxylic acid]	1.6
COc1ccc(-c2csc(-c3ccc(-c4ccccc4[N+](=O)[O-])c(C(=O)O)c3)n2)cc1 [Example 32, 4-[4-(4-Methoxy-phenyl)-thiazol-2-yl]-2′-nitro-biphenyl-2-carboxylic acid]	8.3
O=C(NCc1ccncc1)c1ccc(-c2ccc(-c3nc(-c4ccc(Cl)c(Cl)c4)cs3)cc2C(=O)O)cc1 [Example 69, 4-[4-(3,4-Dichloro-phenyl)-thiazol-2-yl]-4′-[(pyridin-4-ylmethyl)-carbamoyl]-biphenyl-2-carboxylic acid]	7.1
O=C(O)c1cc(-c2nc(-c3ccc(Cl)cc3Cl)cs2)ccc1-c1ccccc1[N+](=O)[O-] [Example 10, 4-[4-(2,4-Dichloro-phenyl)-thiazol-2-yl]-2′-nitro-biphenyl-2-carboxylic acid]	3.5
Cc1ccc(-c2csc(-c3ccc(-c4ccccc4[N+](=O)[O-])c(C(=O)O)c3)n2)c(C)c1 [Example 40, 4-[4-(2,4-Dimethyl-phenyl)-thiazol-2-yl]-2′-nitro-biphenyl-2-carboxylic acid]	4.2
CN1CCN(C(=O)c2ccc(-c3ccc(-c4nc(-c5ccc(Cl)c(Cl)c5)cs4)cc3C(=O)O)cc2)CC1 [Example 53, 4-[4-(3,4-Dichloro-phenyl)-thiazol-2-yl]-4′-(4-methyl-piperazine-1-carbonyl)-biphenyl-2-carboxylic acid]	> 80
O=C(NCC1CCCO1)c1ccc(-c2ccc(-c3nc(-c4ccc(Cl)c(Cl)c4)cs3)cc2C(=O)O)cc1 (stereo not shown) [Example 61, 4-[4-(3,4-Dichloro-phenyl)-thiazol-2-yl]-4′-[(tetrahydro-furan-2-ylmethyl)-carbamoyl]-biphenyl-2-carboxylic acid]	5.5
N#Cc1cc(-c2ccc(-c3nc(-c4ccc(Cl)c(Cl)c4)cs3)cc2C(=O)O)ccc1Cl [Example 115, 4′-Chloro-3′-cyano-4-[4-(3,4-dichloro-phenyl)-thiazol-2-yl]-biphenyl-2-carboxylic acid]	1.9
